Experimental data: patent publication US20230116602A1, “MCL1 INHIBITORS AND USES THEREOF” (California Institute of Technology, priority 2019, published 2023)

How the values were obtained:
MCL1 = MCL1 (Homo sapiens, UniProt Q07820); assay: MCL1 affinity assay (competition binding, qPCR readout); settings: recombinant MCL1, 11-point 3-fold dilution series
Experimental: Recombinant MCL1, BCL2 and BCXL proteins were prepared in either an E. coli host derived from the BL21 strain or in HEK-293 cells. The recombinant proteins were subsequently tagged with DNA for qPCR detection. Streptavidin-coated magnetic beads were treated for 30 minutes at room temperature with the respective biotinylated peptide ligands for each recombinant protein to generate affinity resins for the assays. The liganded beads were blocked with excess biotin and washed with blocking buffer (SeaBlock (Pierce), 1% BSA, 0.05% Tween 20, 1 mM DTT) to remove unbound ligand and to reduce nonspecific binding. Binding reactions were assembled by combining recombinant protein, liganded affinity beads, and test compounds in 1× binding buffer (20% SeaBlock, 0.17×PBS, 0.05% Tween 20, 6 mM DTT). Test compounds were prepared as 111X stocks in 100% DMSO. The compounds were then diluted directly into the assays such that the final concentration of DMSO was 0.9%. The assay plates were incubated at room temperature with shaking for 1 hour and the affinity beads were washed with wash buffer (1×PBS, 0.05% Tween 20). The beads were then re-suspended in elution buffer (1×PBS, 0.05% Tween 20, 0.5 μM non-biotinylated affinity ligand) and incubated at room temperature with shaking for 30 minutes. The recombinant protein concentration in the eluates was measured by qPCR. Kds were determined using an 11-point 3-fold compound dilution series with three DMSO control points.

[1] = tested on: drug-resistant cell lines of Table 3; assay: Cell line growth retardation assay, resistant cohort; assay type: cell-based, Human; settings: Homo sapiens, 144 h; arithmetic mean of IC50s over the resistant cohort of Table 3, 6 days growth; read-out: AvgRes IC50
Experimental: (§1) Cells were seeded at densities of 1,000-5,000 cells per well in 48-well tissue culture plates. After a 24 h rest period, cells were treated with compound at 10 μM, 1 μM, […], 0.08 μM, 0.016 μM, and 0.0032 μM. A group of cells were treated with the vehicle in which the compound was prepared and served as a control. Prior to treatment, cells were counted and this count was used as a baseline for the calculation of growth inhibition. The cells were grown in the presence of compounds for 6 days and were counted on day 6. All cell counting was performed using a Synentec Cellavista plate imager. Growth inhibition was calculated as a ratio of cell population doublings in the presence of compound versus the absence of compound. […] IC50 values for each compound were calculated by fitting curves to data points from each dose-response assay using the Proc NLIN function in SAS for Windows version 9.2 (SAS Institute, Inc.).
(§2) Human cancer cell lines were grouped as “sensitive” or “resistant” to MCL1 inhibition based on whether their growth was retarded by AMG-176 (i.e., (1′S,11R,12S,14E,16S,16aR,18aR)-6′-Chloro-3′,4′,12,13,16,16a,17,18,18a,19-decahydro-16-methoxy-11,12-dimethyl-,Spiro[5,7-etheno-1H,11H-cyclobut[i][1,4]oxazepino[3,4-f][1,2,7]thiadiazacyclohexadecine-2(3H),1′(2′H)-naphthalen]-8(9H)-one 10,10-dioxide) or MIK665 (i.e., (R)-2-((5-(3-chloro-2-methyl-4-(2-(4-methylpiperazin-1-yl)ethoxy)phenyl)-6-(4-fluorophenyl)thieno[2,3-d]pyrimidin-4-yl)oxy)-3-(2-((2-(2-methoxyphenyl)pyrimidin-4-yl)methoxy)phenyl)propanoic acid) (data not shown; see Table 3). These sensitive and resistant cohorts were interrogated for response to each compound, and IC50S were calculated for each cell line using the same technique described above. Average IC50S for the sensitive (“AvgSen IC50”) and resistant (“AvgRes IC50”) cohorts were calculated as arithmetic means of the group, and fold differences (“Fold Diff”) between the resistant and sensitive cohorts were calculated by diving the average IC50 for the resistant cohort by the average IC50 for the sensitive cohort. “A” represents an IC50 of 1 μM or less, “B” represents an IC50 of greater than 1 μM to 5 μM, “C” represents an IC50 of greater than 5 μM, “+” represents a fold difference of 10 or more, and “−” represents a fold difference less than 10.

[2] = tested on: drug-sensitive cell lines of Table 3; assay: Cell line growth retardation assay, sensitive cohort; assay type: cell-based, Human; settings: for IC50: Homo sapiens, 144 h, arithmetic mean of IC50s over the sensitive cohort of Table 3, 6 days growth, read-out: AvgSen IC50; for Fold Diff: average IC50 of resistant cohort divided by average IC50 of sensitive cohort
Experimental: as §1, §2

Chain of MCL1 (Q07820 whole entry): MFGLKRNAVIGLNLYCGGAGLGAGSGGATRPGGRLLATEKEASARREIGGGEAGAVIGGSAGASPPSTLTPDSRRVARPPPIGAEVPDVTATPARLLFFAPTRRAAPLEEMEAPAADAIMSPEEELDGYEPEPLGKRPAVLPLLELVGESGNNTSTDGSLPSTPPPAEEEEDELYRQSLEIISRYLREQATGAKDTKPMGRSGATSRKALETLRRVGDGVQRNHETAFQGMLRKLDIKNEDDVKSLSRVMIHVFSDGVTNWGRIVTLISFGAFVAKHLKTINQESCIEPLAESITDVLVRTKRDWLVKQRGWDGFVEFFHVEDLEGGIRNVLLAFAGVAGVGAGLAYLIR

Structure (SMILES) | Kd (MCL1) | IC50 [1] | IC50 [2] | Fold Diff [2]
Cc1c(-c2c(C3CCC3)ncc3snc(O[C@H](Cc4ccccc4OCc4ccnc(C5CC5)n4)C(=O)O)c23)ccc(OCCN2CCN(C)CC2)c1Cl (atropisomer, axis not shown) [Compound 109] | 101 to 500 nM | > 5000 nM | 1000 to 5000 nM | − (“−” represents a fold difference less than 10)
COc1ccccc1-c1nccc(COc2ccccc2C[C@@H](Oc2nsc3cnc(-c4ccc(F)cc4)c(-c4ccc(OCCC5CCN(C)CC5)c(Cl)c4C)c23)C(=O)O)n1 (atropisomer, axis not shown) [Compound 81] | ≤ 100 nM | > 5000 nM | 1000 to 5000 nM | − (“−” represents a fold difference less than 10)
Cc1c(-c2c(C3CCC3)ncc3snc(O[C@H](Cc4ccccc4OCc4ccnc(-c5cccc(S(C)(=O)=O)c5)n4)C(=O)O)c23)ccc(OCCN2CCN(C)CC2)c1Cl (atropisomer, axis not shown) [Compound 118] | ≤ 100 nM | > 5000 nM | 1000 to 5000 nM | − (“−” represents a fold difference less than 10)
Cc1cc(-c2nccc(COc3ccccc3C[C@@H](Oc3nsc4cnc(C5CCC5)c(-c5ccc(OCCN6CCN(C)CC6)c(Cl)c5C)c34)C(=O)O)n2)ccc1S(=O)(=O)N1CCCC1 (atropisomer, axis not shown) [Compound 115] | 101 to 500 nM | > 5000 nM | 1000 to 5000 nM | − (“−” represents a fold difference less than 10)
Cc1c(-c2c(C3CCC3)ncc3snc(O[C@H](Cc4ccccc4OCc4ccnc(-c5ccncc5)n4)C(=O)O)c23)ccc(OCCN2CCN(C)CC2)c1Cl (atropisomer, axis not shown) [Compound 74] | > 1500 nM | > 5000 nM | > 5000 nM | − (“−” represents a fold difference less than 10)
COc1ccccc1-c1nccc(COc2ccccc2C[C@@H](Oc2nsc3cnc(-c4ccn(CC(C)C)n4)c(-c4ccc(OCCN5CCN(C)CC5)c(Cl)c4C)c23)C(=O)O)n1 (atropisomer, axis not shown) [Compound 38] | ≤ 100 nM | > 5000 nM | ≤ 1000 nM | + (“+” represents a fold difference of 10 or more)
COc1cc(-c2ncc3snc(O[C@H](Cc4ccccc4OCc4ccnc(-c5ccccc5OC)n4)C(=O)O)c3c2-c2ccc(OCCN3CCN(C)CC3)c(Cl)c2C)ccn1 (atropisomer, axis not shown) [Compound 33] | ≤ 100 nM | > 5000 nM | ≤ 1000 nM | + (“+” represents a fold difference of 10 or more)
COc1ccccc1-c1nccc(COc2ccccc2C[C@@H](Oc2nsc3cnc(-c4cccc(F)c4)c(-c4ccc(OCCN(C)C)c(Cl)c4C)c23)C(=O)O)n1 (atropisomer, axis not shown) [Compound 55] | ≤ 100 nM | > 5000 nM | ≤ 1000 nM | + (“+” represents a fold difference of 10 or more)
COc1cccc(-c2ncc3snc(O[C@H](Cc4ccccc4OCc4ccnc(N5CCCC(C)(C)C5)n4)C(=O)O)c3c2-c2ccc(OCCN3CCN(C)CC3)c(Cl)c2C)c1 (atropisomer, axis not shown) [Compound 62] | 501 to 1500 nM | > 5000 nM | 1000 to 5000 nM | − (“−” represents a fold difference less than 10)
COc1ccccc1-c1nccc(COc2ccccc2C[C@@H](Oc2nsc3cnc(-c4ccc(F)c(F)c4)c(-c4ccc(OCCN5CCN(C)CC5)c(Cl)c4C)c23)C(=O)O)n1 (atropisomer, axis not shown) [Compound 85] | ≤ 100 nM | > 5000 nM | ≤ 1000 nM | + (“+” represents a fold difference of 10 or more)
Cc1c(-c2c(N3CC4(COC4)C3)ncc3snc(O[C@H](Cc4ccccc4OCc4ccnn4CC(F)(F)F)C(=O)O)c23)ccc(OCCN2CCN(C)CC2)c1Cl (atropisomer, axis not shown) [Compound 91] | > 1500 nM | > 5000 nM | > 5000 nM | − (“−” represents a fold difference less than 10)
Cc1c(-c2cc(-c3nccc4cc(Cl)ccc34)cc3snc(O[C@H](Cc4ccccc4OCc4ccnn4CC(F)(F)F)C(=O)O)c23)ccc(OCCN2CCN(C)CC2)c1Cl [Compound 95] | > 1500 nM | > 5000 nM | > 5000 nM | − (“−” represents a fold difference less than 10)
COc1ccccc1-c1nccc(COc2ccccc2C[C@@H](Oc2nsc3cnc(C4CCC4)c(-c4ccc(OCCN5CCN(C)CC5)c(Cl)c4C)c23)C(=O)O)n1 (atropisomer, axis not shown) [Compound 36] | ≤ 100 nM | > 5000 nM | ≤ 1000 nM | + (“+” represents a fold difference of 10 or more)
CC(=O)N1CCN(c2ccc(-c3nccc(COc4ccccc4C[C@@H](Oc4nsc5cnc(C6CCC6)c(-c6ccc(OCCN7CCN(C)CC7)c(Cl)c6C)c45)C(=O)O)n3)cc2)CC1 (atropisomer, axis not shown) [Compound 119] | ≤ 100 nM | > 5000 nM | ≤ 1000 nM | + (“+” represents a fold difference of 10 or more)
COc1cccc(-c2ncc3snc(O[C@H](Cc4ccccc4OCc4ccnc(N5CCC(OC)CC5)n4)C(=O)O)c3c2-c2ccc(OCCN3CCN(C)CC3)c(Cl)c2C)c1 (atropisomer, axis not shown) [Compound 70] | 101 to 500 nM | > 5000 nM | ≤ 1000 nM | + (“+” represents a fold difference of 10 or more)
COc1ccccc1-c1nccc(COc2ccccc2C[C@@H](Oc2nsc3cnc(-c4cccc(C#N)c4)c(-c4ccc(OCCN5CCN(C)CC5)c(Cl)c4C)c23)C(=O)O)n1 (atropisomer, axis not shown) [Compound 80] | ≤ 100 nM | > 5000 nM | ≤ 1000 nM | + (“+” represents a fold difference of 10 or more)
COc1ccccc1-c1nccc(COc2ccccc2C[C@@H](Oc2nsc3cnc(C4CC4)c(-c4ccc(OCCN(C)C)c(Cl)c4C)c23)C(=O)O)n1 (atropisomer, axis not shown) [Compound 56] | ≤ 100 nM | > 5000 nM | ≤ 1000 nM | + (“+” represents a fold difference of 10 or more)
Cc1c(-c2c(C3CCC3)ncc3snc(O[C@H](Cc4ccccc4OCc4ccnc(C5CCC(F)(F)CC5)n4)C(=O)O)c23)ccc(OCCN2CCN(C)CC2)c1Cl (atropisomer, axis not shown) [Compound 110] | ≤ 100 nM | > 5000 nM | ≤ 1000 nM | + (“+” represents a fold difference of 10 or more)
COc1ccccc1-c1nccc(COc2ccccc2C[C@@H](Oc2nsc3cnc(-c4cc(F)c(F)c(F)c4)c(-c4ccc(OCCN5CCN(C)CC5)c(Cl)c4C)c23)C(=O)O)n1 (atropisomer, axis not shown) [Compound 84] | ≤ 100 nM | > 5000 nM | ≤ 1000 nM | + (“+” represents a fold difference of 10 or more)
COc1ncccc1-c1nccc(COc2ccccc2C[C@@H](Oc2nsc3cnc(-c4cccc(F)c4)c(-c4ccc(OCCN5CCN(C)CC5)c(Cl)c4C)c23)C(=O)O)n1 (atropisomer, axis not shown) [Compound 64] | 101 to 500 nM | > 5000 nM | > 5000 nM | − (“−” represents a fold difference less than 10)
